Measurements as given in patent US8686113B2 (priority 2009, dated 2014).
In brackets after ≈: the same amount, converted by molar mass. Where two headings read alike, the source gives them in different places. Non-standard residues stand in square brackets, D forms with d. Residues, ends and D or L forms follow the SMILES beside them. *: point of attachment. Guan = N-terminal guanidation, N=C(N)*; Hyp = O=C(O)[C@@H]1C[C@@H](O)CN1; dOrn = NCCC[C@@H](N)C(=O)O; code O = not defined here; Orn = NCCC[C@H](N)C(=O)O; For = O=C*

How the values were obtained:
E. coli BL21 A1 = format: cell-based, Escherichia coli
Protocol: (§1) The minimum inhibitory concentrations (MIC) of the antimicrobial peptides and peptide derivatives were determined in microdilution assays. These used a continuous peptide dilution in sterile flat-bottomed 96-well microtiter plates (polystyrene, Greiner Bio-One GmbH, Frickenhausen, Germany) and a total volume of 100 μL per well. The aqueous peptide or peptidomimetic solutions were diluted with 1% TSB water, to obtain a final concentration of 256 μg/mL. 50 μL of the peptide or peptidomimetic solution was pipetted into the first well of each series and stirred. From this solution, 50 μL was transferred to the second well, stirred and again 50 μL was transferred to the next well, and so on. A double dilution series is obtained, beginning at 256 μg/mL in the first well to 125 ng/mL in the twelfth well. The bacteria, e.g. E. coli BL21 A1, were cultured overnight at 37° C. in nutrient broth (NB, Carl Roth GmbH+Co. KG, Karlsruhe, Germany). 50 μL of a 5×10^6 bacteria/mL suspension in 1% TSB was added to each well of the microtiter plate and thus a final concentration of the peptides or peptidomimetics from 128 μg/mL (well 1) to 62.5 ng/mL (well 12) was established in each series. The plates were incubated at 37° C. for 20 h and then the absorption was measured at 595 nm with a TECAN microtiter plate spectrophotometer (Tecan Trading AG, Mannedorf, Switzerland). The MIC values of all peptides and peptidomimetics were determined in triplicate. Sterile water was used as negative control. The MIC value represents the lowest peptide concentration at which no bacterial growth is observed after an incubation time of 20 h at 37° C.
(§2) The MIC values of the peptides and peptide derivatives against Escherichia coli BL21 A1 and Micrococcus luteus ATCC 10240 are given in Table 7.

M. luteus 10240 = test: Growth inhibition assay (microdilution MIC); format: cell-based, Micrococcus luteus
Protocol: as §1, §2

Compound | MIC E. coli BL21 A1 (E. coli BL21 A1; BL21, 20 h) [µg/mL] | MIC M. luteus 10240 (M. luteus 10240; 10240, 20 h) [µg/mL] | other results
84 (Guan-VDKPPYLPRPRPPRRIYNR-NH2) [compound 84] |  |  | MIC E. coli BL21 A1 (E. coli BL21 A1; 1% TSB, 20 h at 37° C.): 32 µg/mL
85 (Guan-VDKPPYLPRPRPPR[code O]IYN[code O]-NH2; reading uncertain; also: printed as Guan-VDKPPYLPRPRPPROIYNO-NH2) [compound 85] |  |  | MIC E. coli BL21 A1 (E. coli BL21 A1; 1% TSB, 20 h at 37° C.): 64 µg/mL
95 ({RQIKIWFQNRRMKWKKC-Ac}-GNNRPVYIPQPRPPHPRL-OH; not fully specified (bridges); printed as RQIKIWFQNRRMKWKKC-(CH2CO-GNNRPVYIPQPRPPHPRL-OH)-; also: N-terminal CH2CO attached to Cys side chain of RQIKIWFQNRRMKWKKC-OH) [compound 95] |  |  | MIC E. coli BL21 A1 (E. coli BL21 A1; 1% TSB, 20 h at 37° C.): 8 µg/mL; MIC M. luteus 10240 (M. luteus 10240; 1% TSB, 20 h at 37° C.): 8 µg/mL
CC[C@H](C)[C@H](NC(=O)[C@H](CCCN)NC(=O)[C@H](CCCNC(=N)N)NC(=O)[C@@H]1CCCN1C(=O)[C@@H]1CCCN1C(=O)[C@H](CCCNC(=N)N)NC(=O)[C@@H]1CCCN1C(=O)[C@H](CCCNC(=N)N)NC(=O)[C@@H]1CCCN1C(=O)[C@H](CC(C)C)NC(=O)[C@H](Cc1ccc(O)cc1)NC(=O)[C@@H]1CCCN1C(=O)[C@@H]1CCCN1C(=O)[C@H](CCCCN)NC(=O)[C@H](CC(=O)O)NC(=O)[C@@H](N)C(C)C)C(=O)N[C@@H](Cc1ccc(O)cc1)C(=O)N[C@@H](CCC(N)=O)C(=O)N[C@@H](CCCN)C(N)=O [SEQ ID NO. 74, VDKPPYLPRPRPPROIYQO-NH2] (H-VDKPPYLPRPRPPR[Orn]IYQ[Orn]-NH2) | 4 (≈ 1.72 µM) |  | 
CC[C@H](C)[C@H](NC(=O)[C@H](CCCNC(=N)N)NC(=O)[C@H](CCCNC(=N)N)NC(=O)[C@@H]1CCCN1C(=O)[C@@H]1CCCN1C(=O)[C@H](CCCNC(=N)N)NC(=O)[C@@H]1CCCN1C(=O)[C@H](CCCNC(=N)N)NC(=O)[C@@H]1CCCN1C(=O)[C@H](CC(C)C)NC(=O)[C@H](Cc1ccc(O)cc1)NC(=O)[C@@H]1CCCN1C(=O)[C@@H]1CCCN1C(=O)[C@H](CCCCN)NC(=O)[C@H](CC(=O)O)NC(=O)[C@@H](NC=O)C(C)C)C(=O)N[C@@H](Cc1ccc(O)cc1)C(=O)N[C@@H](CC(N)=O)C(=O)N[C@@H](CCCNC(=N)N)C(=O)O [SEQ ID NO. 81] (For-VDKPPYLPRPRPPRRIYNR-OH) | 128 (≈ 52.9 µM) | 32 (≈ 13.2 µM) | 
CC[C@@H](C)[C@@H](NC(=O)[C@@H](CCCNC(=N)N)NC(=O)[C@@H](CCCNC(=N)N)NC(=O)[C@H]1CCCN1C(=O)[C@H]1CCCN1C(=O)[C@@H](CCCNC(=N)N)NC(=O)[C@H]1CCCN1C(=O)[C@@H](CCCNC(=N)N)NC(=O)[C@H]1CCCN1C(=O)[C@@H](CC(C)C)NC(=O)[C@@H](Cc1ccc(O)cc1)NC(=O)[C@H]1CCCN1C(=O)[C@H]1CCCN1C(=O)[C@@H](CCCCN)NC(=O)[C@@H](CC(=O)O)NC(=O)[C@H](N)C(C)C)C(=O)N[C@H](Cc1ccc(O)cc1)C(=O)N[C@H](CC(N)=O)C(=O)N[C@H](CCCNC(=N)N)C(N)=O [SEQ ID NO. 115, vdkppylprprpprriynr-NH2] (H-[dV][dD][dK][dP][dP][dY][dL][dP][dR][dP][dR][dP][dP][dR][dR][dI][dY][dN][dR]-NH2) |  | 64 (≈ 26.8 µM) | 
CC[C@@H](C)[C@@H](NC(=O)[C@@H](CCCN)NC(=O)[C@@H](CCCNC(=N)N)NC(=O)[C@H]1CCCN1C(=O)[C@H]1CCCN1C(=O)[C@@H](CCCNC(=N)N)NC(=O)[C@H]1CCCN1C(=O)[C@@H](CCCNC(=N)N)NC(=O)[C@H]1CCCN1C(=O)[C@@H](CC(C)C)NC(=O)[C@@H](Cc1ccc(O)cc1)NC(=O)[C@H]1CCCN1C(=O)[C@H]1CCCN1C(=O)[C@@H](CCCCN)NC(=O)[C@@H](CC(=O)O)NC(=O)[C@H](N)C(C)C)C(=O)N[C@H](Cc1ccc(O)cc1)C(=O)N[C@H](CC(N)=O)C(=O)N[C@H](CCCN)C(N)=O [SEQ ID NO. 116, vdkppylprprpproiyno-NH2] (H-[dV][dD][dK][dP][dP][dY][dL][dP][dR][dP][dR][dP][dP][dR][dOrn][dI][dY][dN][dOrn]-NH2) |  | 128 (≈ 55.5 µM) | 
CC[C@@H](C)[C@@H](NC(=O)[C@@H](Cc1ccc(O)cc1)NC(=O)[C@@H](CC(N)=O)NC(=O)[C@H](N)CCCNC(=N)N)C(=O)N[C@H](CCCNC(=N)N)C(=O)N[C@H](CCCNC(=N)N)C(=O)N1CCC[C@@H]1C(=O)N1CCC[C@@H]1C(=O)N[C@H](CCCNC(=N)N)C(=O)N1CCC[C@@H]1C(=O)N[C@H](CCCNC(=N)N)C(=O)N1CCC[C@@H]1C(=O)N[C@H](CC(C)C)C(=O)N[C@H](Cc1ccc(O)cc1)C(=O)N1CCC[C@@H]1C(=O)N1CCC[C@@H]1C(=O)N[C@H](CCCCN)C(=O)N[C@H](CC(=O)O)C(=O)N[C@@H](C(N)=O)C(C)C [SEQ ID NO. 117, rnyirrpprprplyppkdv-NH2] (H-[dR][dN][dY][dI][dR][dR][dP][dP][dR][dP][dR][dP][dL][dY][dP][dP][dK][dD][dV]-NH2) | 64 to 256 |  | 
CC[C@@H](C)[C@@H](NC(=O)[C@@H](Cc1ccc(O)cc1)NC(=O)[C@@H](CC(N)=O)NC(=O)[C@H](N)CCCN)C(=O)N[C@H](CCCN)C(=O)N[C@H](CCCNC(=N)N)C(=O)N1CCC[C@@H]1C(=O)N1CCC[C@@H]1C(=O)N[C@H](CCCNC(=N)N)C(=O)N1CCC[C@@H]1C(=O)N[C@H](CCCNC(=N)N)C(=O)N1CCC[C@@H]1C(=O)N[C@H](CC(C)C)C(=O)N[C@H](Cc1ccc(O)cc1)C(=O)N1CCC[C@@H]1C(=O)N1CCC[C@@H]1C(=O)N[C@H](CCCCN)C(=O)N[C@H](CC(=O)O)C(=O)N[C@@H](C(N)=O)C(C)C [SEQ ID NO. 118, onyiorpprprplyppkdv-NH2] (H-[dOrn][dN][dY][dI][dOrn][dR][dP][dP][dR][dP][dR][dP][dL][dY][dP][dP][dK][dD][dV]-NH2) | 64 to 256 |  | 
CC[C@H](C)[C@H](NC(=O)[C@H](CCCNC(=N)N)NC(=O)[C@H](CCCNC(=N)N)NC(=O)[C@@H]1CCCN1C(=O)[C@@H]1CCCN1C(=O)[C@@H]1C[C@@H](O)CN1C(=O)[C@@H]1CCCN1C(=O)[C@H](CCCNC(=N)N)NC(=O)[C@@H]1CCCN1C(=O)[C@H](CC(C)C)NC(=O)[C@H](Cc1ccc(O)cc1)NC(=O)[C@@H]1CCCN1C(=O)[C@@H]1CCCN1C(=O)[C@H](CCCCN)NC(=O)[C@H](CC(=O)O)NC(=O)[C@@H](N)C(C)C)C(=O)N[C@@H](Cc1ccc(O)cc1)C(=O)N[C@@H](CC(N)=O)C(=O)N[C@@H](CCCNC(=N)N)C(=O)O [compound 3] (H-VDKPPYLPRP[Hyp]PPRRIYNR-OH) | 128 (≈ 54.5 µM) | 32 (≈ 13.6 µM) | 
CC[C@H](C)[C@H](NC(=O)[C@H](CCCNC(=N)N)NC(=O)[C@H](CCCNC(=N)N)NC(=O)[C@@H]1CCCN1C(=O)[C@@H]1CCCN1C(=O)[C@H](CCCNC(=N)N)NC(=O)[C@@H]1CCCN1C(=O)[C@H](CCCNC(=N)N)NC(=O)[C@@H]1CCCN1C(=O)[C@H](CC(C)C)NC(=O)[C@H](Cc1ccc(O)cc1)NC(=O)[C@@H]1CCCN1C(=O)[C@@H]1CCCN1C(=O)[C@H](CCCCN)NC(=O)[C@H](CC(=O)O)NC(=O)[C@@H](N)C(C)C)C(=O)N[C@@H](Cc1ccc(O)cc1)C(=O)N[C@@H](CC(N)=O)C(=O)N[C@@H](CCCN)C(=O)N[C@@H](CC(N)=O)C(N)=O [compound 26] (H-VDKPPYLPRPRPPRRIYN[Orn]N-NH2) | 8 (≈ 3.25 µM) | 8 (≈ 3.25 µM) | 
CC[C@H](C)[C@H](NC(=O)[C@H](CCCN)NC(=O)[C@H](CCCNC(=N)N)NC(=O)[C@@H]1CCCN1C(=O)[C@@H]1CCCN1C(=O)[C@H](CCCNC(=N)N)NC(=O)[C@@H]1CCCN1C(=O)[C@H](CCCNC(=N)N)NC(=O)[C@@H]1CCCN1C(=O)[C@H](CC(C)C)NC(=O)[C@H](Cc1ccc(O)cc1)NC(=O)[C@@H]1CCCN1C(=O)[C@@H]1CCCN1C(=O)[C@H](CCCCN)NC(=O)[C@H](CC(=O)O)NC(=O)[C@@H](N)C(C)C)C(=O)N[C@@H](Cc1ccc(O)cc1)C(=O)N[C@@H](CCC(N)=O)C(=O)N[C@@H](CCCN)C(N)=O [compound 74] (H-VDKPPYLPRPRPPR[Orn]IYQ[Orn]-NH2) |  | 8 (≈ 3.45 µM) | 
CC[C@H](C)[C@H](NC(=O)[C@@H](CCCNC(=N)N)NC(=O)[C@H](CCCNC(=N)N)NC(=O)[C@@H]1CCCN1C(=O)[C@@H]1CCCN1C(=O)[C@H](CCCNC(=N)N)NC(=O)[C@@H]1CCCN1C(=O)[C@H](CCCNC(=N)N)NC(=O)[C@@H]1CCCN1C(=O)[C@H](CC(C)C)NC(=O)[C@H](Cc1ccc(O)cc1)NC(=O)[C@@H]1CCCN1C(=O)[C@@H]1CCCN1C(=O)[C@H](CCCCN)NC(=O)[C@H](CC(=O)O)NC(=O)[C@@H](N)C(C)C)C(=O)N[C@@H](Cc1ccc(O)cc1)C(=O)N[C@@H](CC(N)=O)C(=O)N[C@H](CCCNC(=N)N)C(N)=O [compound 112] (H-VDKPPYLPRPRPPR[dR]IYN[dR]-NH2) | 4 (≈ 1.67 µM) |  | 
H-GNNRPVYIPQPRPPHPRL-OH [SEQ ID NO. 87, reference compound] |  |  | MIC M. luteus 10240 (M. luteus 10240; 1% TSB, 20 h at 37° C.): 64 µg/mL
H-VDKPPYLPRPPPPRRIYN-NH2 [compound 1] | 128 |  | 
H-VDKPPYLPRPRPPRRIYN-OH [compound 28] |  | 128 | 
H-VDKPPYLPRPRPPRRIYNH-NH2 [SEQ ID NO. 53] | 16 |  | times lower activity / higher MIC value than oncocin against E. coli (E. coli BL21 A1): 4 times
H-VDKPPYLPRPRPPRRIYNH-NH2 [compound 53] |  | 16 | 
